This is an account of results in ChEMBL document CHEMBL1201862, “PubChem BioAssay data set” (2004).

Test [1] concerns the target T1, Endoribonuclease toxin MazF (Escherichia coli K-12, UniProt P0AE70). Put plainly: MazF toxin RNase activators, dose response, biochemical, fluorescence, single-stranded RNA substrate, uHTS hits (AID 588481). In kind it is functional.
The next test concerns the target Troponin, cardiac muscle (Homo sapiens, UniProt P19429+P45379+P63316). Put plainly: Fluorescence-based biochemical high throughput dose response assay for activators of the calcium sensitivity of cardiac Regulated Thin Filaments (RTF). [Related pubchem assays (depositor defined):AID493008, AID493018, AID504382, AID504383]. It counts as protein-complex assay.
Test [2] has as its target T1, Endoribonuclease toxin MazF. Kind of test: fluorescent RNA oligo signal without MazF, dose response, counter-screen for MazEF activator project, biochemical, fluorescence, single-stranded RNase substrate (AID 588502). In kind it is functional.
Test [3] addresses UDP-galactopyranose mutase (Mycobacterium tuberculosis, UniProt P9WIQ1). Kind of test: Inhibitors of Mycobacterium tuberculosis UDP-galactopyranose mutase (UGM) enzyme Measured in Biochemical System Using Plate Reader - 2105-02_Inhibitor_Dose_CherryPick_Activity. [Related pubchem assays (depositor defined):AID504439].
The target of the next test is ORF 73 (Human herpesvirus 8, UniProt O40947). Put plainly: inhibitors of C-LANA binding to LBS DNA, dose response, biochemical, fluorescence polarization, cherry-picked samples (AID 504725).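 Note: fluorescence polarization of a labeled DNA duplex reporting LANA DNA binding; potency is for inhibitors that block LANA binding to the DNA.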 Further details: species or system Human gammaherpesvirus 8.
ORF 73, sequence (O40947 whole entry): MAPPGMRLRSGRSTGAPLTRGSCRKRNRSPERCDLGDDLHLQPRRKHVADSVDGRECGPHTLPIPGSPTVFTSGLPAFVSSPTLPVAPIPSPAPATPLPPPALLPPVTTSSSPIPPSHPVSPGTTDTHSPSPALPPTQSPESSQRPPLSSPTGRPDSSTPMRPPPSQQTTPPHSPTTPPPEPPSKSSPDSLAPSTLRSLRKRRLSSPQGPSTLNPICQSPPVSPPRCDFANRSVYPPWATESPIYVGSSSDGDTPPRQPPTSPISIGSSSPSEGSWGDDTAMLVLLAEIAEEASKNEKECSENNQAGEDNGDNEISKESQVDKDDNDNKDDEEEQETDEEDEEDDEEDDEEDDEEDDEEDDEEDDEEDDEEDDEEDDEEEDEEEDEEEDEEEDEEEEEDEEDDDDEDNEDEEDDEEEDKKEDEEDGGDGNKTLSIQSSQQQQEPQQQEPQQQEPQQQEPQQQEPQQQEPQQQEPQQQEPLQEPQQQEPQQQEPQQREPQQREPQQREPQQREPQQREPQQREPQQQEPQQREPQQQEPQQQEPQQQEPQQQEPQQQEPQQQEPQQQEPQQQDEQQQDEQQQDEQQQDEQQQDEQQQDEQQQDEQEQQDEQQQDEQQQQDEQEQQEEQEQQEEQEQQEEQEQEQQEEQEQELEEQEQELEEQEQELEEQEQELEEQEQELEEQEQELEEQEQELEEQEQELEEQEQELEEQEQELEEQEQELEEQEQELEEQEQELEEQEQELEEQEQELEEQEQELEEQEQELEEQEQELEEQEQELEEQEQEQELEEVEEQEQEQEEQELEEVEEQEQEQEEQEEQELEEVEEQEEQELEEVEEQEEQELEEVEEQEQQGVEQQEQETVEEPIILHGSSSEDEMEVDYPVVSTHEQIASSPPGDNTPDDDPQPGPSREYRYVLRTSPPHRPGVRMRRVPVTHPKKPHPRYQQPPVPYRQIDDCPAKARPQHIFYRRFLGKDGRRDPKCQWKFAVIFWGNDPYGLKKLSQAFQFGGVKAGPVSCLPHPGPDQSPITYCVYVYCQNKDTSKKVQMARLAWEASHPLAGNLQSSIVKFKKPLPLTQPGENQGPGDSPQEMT
The target of test [4] is T2, Oxysterols receptor LXR-beta (Homo sapiens, UniProt P55055).
T2 sequence (P55055 whole entry): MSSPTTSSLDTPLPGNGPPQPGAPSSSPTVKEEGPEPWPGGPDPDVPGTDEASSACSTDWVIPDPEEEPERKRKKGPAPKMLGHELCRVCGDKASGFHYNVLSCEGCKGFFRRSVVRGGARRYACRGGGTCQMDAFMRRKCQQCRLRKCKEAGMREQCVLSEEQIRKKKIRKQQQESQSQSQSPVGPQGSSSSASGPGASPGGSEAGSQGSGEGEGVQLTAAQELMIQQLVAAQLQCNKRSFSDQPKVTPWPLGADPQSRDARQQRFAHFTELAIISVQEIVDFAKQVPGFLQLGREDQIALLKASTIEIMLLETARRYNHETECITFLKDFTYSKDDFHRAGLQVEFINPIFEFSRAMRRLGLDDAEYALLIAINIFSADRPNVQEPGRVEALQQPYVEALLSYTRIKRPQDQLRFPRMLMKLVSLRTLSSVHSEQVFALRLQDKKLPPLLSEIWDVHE
Put plainly: LXR agonists, Gal4 luciferase reporter, dose response, counter-screen for ssDAF-12 agonist project, cell-based, luminescence, HEK293, S. stercoralis campaign (AID 720737). In kind it is functional. The note with it: read-out: IC50 (the source's name).

The next test has as its target Keap1/Nrf2 (Homo sapiens, UniProt Q14145). Kind of test: Keap1-Nrf2 protein-protein interaction inhibitors, dose response, biochemical, fluorescence polarization, cherry-picked samples (AID 588683). (In fluorescence polarisation assays a small probe gives low polarisation when free and higher when bound to something large.)
Test [5] in a line: Luminescence-based cell-based high throughput dose response assay to identify activators of the DAF-12 from the parasite S. stercoralis (ssDAF-12). In kind it is functional.
Test [6] concerns the target T3, Sentrin-specific protease 7 (Homo sapiens, UniProt Q9BQF6).
T3 sequence (Q9BQF6 whole entry): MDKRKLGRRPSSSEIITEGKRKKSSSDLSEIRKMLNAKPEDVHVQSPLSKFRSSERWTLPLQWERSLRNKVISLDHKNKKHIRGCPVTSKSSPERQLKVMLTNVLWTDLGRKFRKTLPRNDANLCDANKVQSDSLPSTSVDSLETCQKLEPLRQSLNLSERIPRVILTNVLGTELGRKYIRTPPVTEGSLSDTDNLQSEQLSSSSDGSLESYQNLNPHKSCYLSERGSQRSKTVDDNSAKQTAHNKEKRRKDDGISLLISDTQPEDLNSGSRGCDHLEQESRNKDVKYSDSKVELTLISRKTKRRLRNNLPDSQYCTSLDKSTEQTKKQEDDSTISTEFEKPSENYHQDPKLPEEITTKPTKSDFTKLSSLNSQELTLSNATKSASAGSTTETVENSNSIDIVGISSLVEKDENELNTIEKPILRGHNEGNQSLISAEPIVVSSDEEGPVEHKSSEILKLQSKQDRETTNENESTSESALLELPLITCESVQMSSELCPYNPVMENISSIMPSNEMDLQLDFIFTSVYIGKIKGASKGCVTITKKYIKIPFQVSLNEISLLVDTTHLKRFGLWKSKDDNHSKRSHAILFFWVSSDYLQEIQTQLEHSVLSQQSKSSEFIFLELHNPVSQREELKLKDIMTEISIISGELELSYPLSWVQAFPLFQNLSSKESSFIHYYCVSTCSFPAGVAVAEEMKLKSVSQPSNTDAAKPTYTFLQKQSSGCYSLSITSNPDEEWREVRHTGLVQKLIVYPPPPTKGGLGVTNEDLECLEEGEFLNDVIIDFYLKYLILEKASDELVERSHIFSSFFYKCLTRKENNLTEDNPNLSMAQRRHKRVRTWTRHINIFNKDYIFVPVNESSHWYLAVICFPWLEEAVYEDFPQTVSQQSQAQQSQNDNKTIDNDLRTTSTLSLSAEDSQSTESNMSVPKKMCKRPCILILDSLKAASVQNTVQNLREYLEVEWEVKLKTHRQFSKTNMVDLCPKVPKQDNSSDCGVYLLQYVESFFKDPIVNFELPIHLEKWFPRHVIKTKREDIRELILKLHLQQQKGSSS
Kind of test: SENP7 protease inhibitors, SAR follow-up, biochemical, luminescence (AID 504497). In kind it is functional.

Test [7] has as its target T4, Sentrin-specific protease 8 (Homo sapiens, UniProt Q96LD8).
T4 sequence (Q96LD8 whole entry): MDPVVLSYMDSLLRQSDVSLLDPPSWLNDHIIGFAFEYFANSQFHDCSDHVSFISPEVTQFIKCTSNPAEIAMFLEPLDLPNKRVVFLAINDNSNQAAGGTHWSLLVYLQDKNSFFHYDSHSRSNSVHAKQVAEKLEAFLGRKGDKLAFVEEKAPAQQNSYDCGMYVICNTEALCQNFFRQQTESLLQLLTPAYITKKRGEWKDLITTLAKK
Kind of test: SENP8 protease inhibitors, SAR follow-up, biochemical, luminescence (AID 504501). It counts as functional.

In test [8] the target is T5, Sentrin-specific protease 6 (Homo sapiens, UniProt Q9GZR1).
T5 sequence (Q9GZR1 whole entry): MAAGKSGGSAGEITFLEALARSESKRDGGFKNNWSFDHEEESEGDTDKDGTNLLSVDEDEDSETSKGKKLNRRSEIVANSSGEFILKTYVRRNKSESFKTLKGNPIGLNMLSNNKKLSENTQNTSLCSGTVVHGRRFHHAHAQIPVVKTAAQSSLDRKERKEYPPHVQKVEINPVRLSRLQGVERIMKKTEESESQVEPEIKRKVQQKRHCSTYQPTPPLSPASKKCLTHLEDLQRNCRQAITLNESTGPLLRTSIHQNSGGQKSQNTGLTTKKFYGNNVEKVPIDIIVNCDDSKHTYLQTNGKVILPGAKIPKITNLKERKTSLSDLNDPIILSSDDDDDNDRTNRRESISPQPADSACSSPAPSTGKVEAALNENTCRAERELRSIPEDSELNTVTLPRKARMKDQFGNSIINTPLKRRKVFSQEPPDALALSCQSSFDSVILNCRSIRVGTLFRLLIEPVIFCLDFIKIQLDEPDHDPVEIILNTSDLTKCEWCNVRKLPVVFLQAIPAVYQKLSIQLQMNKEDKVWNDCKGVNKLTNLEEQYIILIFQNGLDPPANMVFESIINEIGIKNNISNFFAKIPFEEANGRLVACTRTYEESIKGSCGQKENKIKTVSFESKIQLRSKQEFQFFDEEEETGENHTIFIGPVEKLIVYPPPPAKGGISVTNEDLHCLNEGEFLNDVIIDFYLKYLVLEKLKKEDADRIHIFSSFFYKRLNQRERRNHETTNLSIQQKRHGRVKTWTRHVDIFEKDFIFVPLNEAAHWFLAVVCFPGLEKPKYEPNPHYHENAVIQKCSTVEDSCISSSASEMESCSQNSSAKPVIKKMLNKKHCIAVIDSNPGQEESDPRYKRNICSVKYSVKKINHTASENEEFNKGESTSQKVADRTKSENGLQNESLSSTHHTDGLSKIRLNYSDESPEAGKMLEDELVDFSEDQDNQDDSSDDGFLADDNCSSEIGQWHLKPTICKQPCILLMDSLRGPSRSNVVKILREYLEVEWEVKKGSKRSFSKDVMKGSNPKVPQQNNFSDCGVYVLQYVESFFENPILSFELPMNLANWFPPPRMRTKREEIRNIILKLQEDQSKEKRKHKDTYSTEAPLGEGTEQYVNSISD
Put plainly: SAR Analysis of small molecule inhibitors of Sentrin-specific protease 6 (SENP6) using a Luminescent assay. [Related pubchem assays (depositor defined):AID2582, AID2599]. In kind it is functional.

Test [9] has as its target T4, Sentrin-specific protease 8. Put plainly: SENP8 protease inhibitors, SAR follow-up, biochemical, luminescence, set 2 (AID 588601). It counts as functional.
The target of test [10] is T6, Caspase-3 (Homo sapiens, UniProt P42574).
T6 sequence (P42574 whole entry): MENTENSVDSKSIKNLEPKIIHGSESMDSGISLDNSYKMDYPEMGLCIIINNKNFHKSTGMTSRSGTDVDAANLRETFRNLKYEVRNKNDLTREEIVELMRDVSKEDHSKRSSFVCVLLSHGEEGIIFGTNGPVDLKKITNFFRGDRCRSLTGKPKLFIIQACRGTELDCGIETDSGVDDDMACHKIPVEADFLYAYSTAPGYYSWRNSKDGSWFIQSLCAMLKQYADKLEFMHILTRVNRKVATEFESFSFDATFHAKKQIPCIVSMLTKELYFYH
Kind of test: caspase-3 inhibitors as off-family protease, SAR follow-up, selectivity assay for SENP protease inhibitor project, biochemical, luminescence, set 2 (AID 588599). In kind it is functional.

Test [11] has as its target T3, Sentrin-specific protease 7. Kind of test: SENP7 protease inhibitors, SAR follow-up, biochemical, luminescence, set 2 (AID 588600). It counts as functional.
Test [12] deals with T6, Caspase-3. Kind of test: SAR Analysis of small molecule inhibitors of Sentrin-specific proteases (SENPs) using a Caspase-3 Selectivity assay. [Related pubchem assays (depositor defined):AID2540, AID2599, AID434973, AID489001]. It counts as functional.
Test [13] has as its target T5, Sentrin-specific protease 6. Kind of test: SENP6 protease inhibitors, SAR follow-up, biochemical, luminescence, set 2 (AID 588598). It counts as functional.
In the next test the target is Phospholipase D1 (Homo sapiens, UniProt Q13393). Put plainly: PLD1 inhibitor potency in cells, dose response (AID 602151).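 Note: cellular PLD1 assay in Calu-1 cells stimulated with PMA.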 In kind it is functional.
Phospholipase D1, sequence (Q13393 whole entry): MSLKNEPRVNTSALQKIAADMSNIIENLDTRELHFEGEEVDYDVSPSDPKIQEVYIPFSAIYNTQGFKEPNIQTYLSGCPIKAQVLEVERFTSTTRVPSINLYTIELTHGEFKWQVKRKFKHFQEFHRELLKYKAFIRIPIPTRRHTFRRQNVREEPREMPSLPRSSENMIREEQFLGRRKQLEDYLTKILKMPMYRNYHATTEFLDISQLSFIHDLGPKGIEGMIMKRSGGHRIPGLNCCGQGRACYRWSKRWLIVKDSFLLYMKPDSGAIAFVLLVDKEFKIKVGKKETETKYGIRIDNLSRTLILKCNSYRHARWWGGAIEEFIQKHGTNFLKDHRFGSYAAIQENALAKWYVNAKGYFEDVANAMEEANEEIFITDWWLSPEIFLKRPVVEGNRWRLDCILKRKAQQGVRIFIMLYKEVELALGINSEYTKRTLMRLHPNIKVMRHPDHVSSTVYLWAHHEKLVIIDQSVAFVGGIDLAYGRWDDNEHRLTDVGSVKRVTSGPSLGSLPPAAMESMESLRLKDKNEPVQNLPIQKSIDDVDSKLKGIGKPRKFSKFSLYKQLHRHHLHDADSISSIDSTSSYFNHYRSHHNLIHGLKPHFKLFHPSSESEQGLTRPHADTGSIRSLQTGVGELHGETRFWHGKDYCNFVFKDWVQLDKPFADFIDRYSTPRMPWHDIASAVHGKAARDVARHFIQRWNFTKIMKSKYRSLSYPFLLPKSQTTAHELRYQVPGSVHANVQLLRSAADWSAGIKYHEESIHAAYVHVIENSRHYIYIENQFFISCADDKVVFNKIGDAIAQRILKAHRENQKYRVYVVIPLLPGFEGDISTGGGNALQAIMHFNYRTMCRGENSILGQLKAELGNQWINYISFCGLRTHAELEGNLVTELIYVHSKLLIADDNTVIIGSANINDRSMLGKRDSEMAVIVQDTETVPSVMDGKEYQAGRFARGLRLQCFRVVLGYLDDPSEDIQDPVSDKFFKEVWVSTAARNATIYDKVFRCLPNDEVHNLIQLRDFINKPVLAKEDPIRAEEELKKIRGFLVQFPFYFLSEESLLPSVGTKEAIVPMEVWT
The subject of test [14] is HEK293. Kind of test: SAR Analysis of small molecule inhibitors of B-cell specific antigen receptor-induced NF-kB activation in a HEK-293T cell line using a luminescence assay - Set 2. [Related pubchem assays (depositor defined):AID435022, AID435025, AID489021]. It counts as functional, cell-based. The note with it: Homo sapiens.
The next test deals with Jurkat. Put plainly: SAR Analysis of small molecule inhibitors of […] specific antigen receptor-induced NF-kB activation in a Jurkat cell line using a luminescence assay - Set 3. [Related pubchem assays (depositor defined):AID435022, AID435025, AID465]. In kind it is functional, cell-based. The note with it: Homo sapiens.
In test [15] the test system is HEK293. Kind of test: cytotoxicity in HEK293T NF-kB-Luc cells, SAR follow-up, cytotoxicity control for NF-kB activator project, cell-based, resazurin fluorescence (AID 493251). In kind it is functional. The note with it: Homo sapiens. In general terms: The colour change of resazurin is a common sign of viable cells or microbes.

SMILES strings stand for the structures. The source made the active and inactive calls. Where only a bound is given, the exact number is not on record here.

T1 sequence (P0AE70 whole entry): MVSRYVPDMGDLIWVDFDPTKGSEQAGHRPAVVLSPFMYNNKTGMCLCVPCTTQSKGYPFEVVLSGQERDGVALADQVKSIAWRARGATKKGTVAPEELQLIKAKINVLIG
UDP-galactopyranose mutase, sequence (P9WIQ1 whole entry): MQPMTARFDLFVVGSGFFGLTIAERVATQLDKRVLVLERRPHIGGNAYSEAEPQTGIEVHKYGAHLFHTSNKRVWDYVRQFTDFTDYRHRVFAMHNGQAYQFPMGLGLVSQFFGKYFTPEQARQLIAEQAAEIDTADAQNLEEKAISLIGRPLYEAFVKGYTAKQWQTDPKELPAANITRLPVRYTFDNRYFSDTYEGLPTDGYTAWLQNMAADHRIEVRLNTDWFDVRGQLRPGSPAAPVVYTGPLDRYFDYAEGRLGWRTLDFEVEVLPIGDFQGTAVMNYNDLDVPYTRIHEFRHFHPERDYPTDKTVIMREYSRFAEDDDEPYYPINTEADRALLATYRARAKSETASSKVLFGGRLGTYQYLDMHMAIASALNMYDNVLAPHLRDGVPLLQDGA
Keap1/Nrf2, sequence (Q16236 whole entry): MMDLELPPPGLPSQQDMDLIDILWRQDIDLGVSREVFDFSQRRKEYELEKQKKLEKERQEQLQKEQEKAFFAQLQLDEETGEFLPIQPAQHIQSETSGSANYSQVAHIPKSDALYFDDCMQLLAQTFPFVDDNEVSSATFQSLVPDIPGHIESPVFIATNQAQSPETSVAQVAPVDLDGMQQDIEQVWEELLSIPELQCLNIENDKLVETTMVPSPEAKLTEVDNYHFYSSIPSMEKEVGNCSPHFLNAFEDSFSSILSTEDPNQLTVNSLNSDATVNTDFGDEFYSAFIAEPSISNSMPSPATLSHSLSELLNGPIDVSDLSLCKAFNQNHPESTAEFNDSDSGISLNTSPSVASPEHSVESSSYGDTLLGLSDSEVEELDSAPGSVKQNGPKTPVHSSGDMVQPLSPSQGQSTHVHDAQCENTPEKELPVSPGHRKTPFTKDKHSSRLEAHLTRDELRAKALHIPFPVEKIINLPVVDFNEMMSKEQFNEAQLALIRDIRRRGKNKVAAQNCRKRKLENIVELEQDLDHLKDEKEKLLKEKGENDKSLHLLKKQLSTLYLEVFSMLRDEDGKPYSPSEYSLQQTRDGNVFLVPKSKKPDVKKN
Keap1/Nrf2, sequence (Q14145 whole entry): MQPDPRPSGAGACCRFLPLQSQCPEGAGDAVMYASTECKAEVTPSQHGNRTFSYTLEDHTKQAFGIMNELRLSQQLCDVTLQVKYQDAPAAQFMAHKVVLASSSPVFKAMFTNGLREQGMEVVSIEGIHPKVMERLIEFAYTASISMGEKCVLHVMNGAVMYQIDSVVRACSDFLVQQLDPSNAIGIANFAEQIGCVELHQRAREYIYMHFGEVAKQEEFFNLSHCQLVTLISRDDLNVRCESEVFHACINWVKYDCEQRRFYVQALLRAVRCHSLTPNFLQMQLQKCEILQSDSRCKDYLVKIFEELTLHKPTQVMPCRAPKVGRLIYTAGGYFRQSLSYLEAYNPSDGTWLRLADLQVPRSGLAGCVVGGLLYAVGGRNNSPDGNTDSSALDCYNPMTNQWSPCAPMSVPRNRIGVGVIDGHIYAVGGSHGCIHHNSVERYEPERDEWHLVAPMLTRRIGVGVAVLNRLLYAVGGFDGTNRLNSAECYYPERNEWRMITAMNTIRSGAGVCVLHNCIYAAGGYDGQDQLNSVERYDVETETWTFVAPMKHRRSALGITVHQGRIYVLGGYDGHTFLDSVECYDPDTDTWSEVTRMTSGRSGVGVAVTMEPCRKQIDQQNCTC

A word on the AC50: it is the concentration at which the activity in the assay is half-maximal. Broadly, the IC50 is the concentration that inhibits the measured activity by half. As to `CN(N=Nc1ccc([N+](=O)[O-])cc1)c1ccccc1`, the EC50 in test [1] is > 99 µM (inactive); at Troponin, cardiac muscle, 5.61 µM (active); in test [2] it was 31 µM (inactive); in test [4], > 67.6 µM (inactive). In addition, the results for the AC50 (in test [3]; at ORF 73; on Keap1/Nrf2) were 28.7 µM (active), 11.4 µM (active) and 21.8 µM (active), respectively. The IC50 in [5] was > 67.6 µM (inactive).

Regarding `Fc1cccc(F)c1-c1nc(/C=C/c2ccccc2)no1`, the IC50 in [6] is 5.5 µM (active); in test [7], 15 µM (active); in test [8] it was 14 µM (active); in test [9], 6.98 µM (active); on Caspase-3 [10], 18 µM (active); in test [11] it was 8.02 µM (active). For the same compound, the IC50 is 20 µM (active) at Caspase-3 [12] and 6.72 µM (active) in test [13].

On to `O=C(NCCN1CC=C(n2c(=O)[nH]c3ccccc32)CC1)C1CC1c1ccccc1` (stereo not given), for which the IC50 at Phospholipase D1 is 0.2 µM (active).

For the compound `CC(C)NC(=O)CCc1nc(-c2ccc(C(C)(C)C)cc2)no1`, the results for the IC50 in the test with HEK293 [14], in the test with Jurkat and in the test with HEK293 [15] were 13.5 µM (active), 29.2 µM (inactive) and > 80 µM (inactive), respectively.
